Data taken from patent US20260374773A1, “MULTI-CYCLIC IRAK AND FLT3 INHIBITING COMPOUNDS AND USES THEREOF” (CHILDREN'S HOSPITAL MEDICAL CENTER, priority 2022, published 2026).

What follows are compounds tested against T1, FLT3 (Homo sapiens, UniProt P36888) (assay: DiscoverX KINOMEscan active site-directed competition binding, FLT3). Settings: Table 12; no ATP.
T1 sequence (P36888 27-993): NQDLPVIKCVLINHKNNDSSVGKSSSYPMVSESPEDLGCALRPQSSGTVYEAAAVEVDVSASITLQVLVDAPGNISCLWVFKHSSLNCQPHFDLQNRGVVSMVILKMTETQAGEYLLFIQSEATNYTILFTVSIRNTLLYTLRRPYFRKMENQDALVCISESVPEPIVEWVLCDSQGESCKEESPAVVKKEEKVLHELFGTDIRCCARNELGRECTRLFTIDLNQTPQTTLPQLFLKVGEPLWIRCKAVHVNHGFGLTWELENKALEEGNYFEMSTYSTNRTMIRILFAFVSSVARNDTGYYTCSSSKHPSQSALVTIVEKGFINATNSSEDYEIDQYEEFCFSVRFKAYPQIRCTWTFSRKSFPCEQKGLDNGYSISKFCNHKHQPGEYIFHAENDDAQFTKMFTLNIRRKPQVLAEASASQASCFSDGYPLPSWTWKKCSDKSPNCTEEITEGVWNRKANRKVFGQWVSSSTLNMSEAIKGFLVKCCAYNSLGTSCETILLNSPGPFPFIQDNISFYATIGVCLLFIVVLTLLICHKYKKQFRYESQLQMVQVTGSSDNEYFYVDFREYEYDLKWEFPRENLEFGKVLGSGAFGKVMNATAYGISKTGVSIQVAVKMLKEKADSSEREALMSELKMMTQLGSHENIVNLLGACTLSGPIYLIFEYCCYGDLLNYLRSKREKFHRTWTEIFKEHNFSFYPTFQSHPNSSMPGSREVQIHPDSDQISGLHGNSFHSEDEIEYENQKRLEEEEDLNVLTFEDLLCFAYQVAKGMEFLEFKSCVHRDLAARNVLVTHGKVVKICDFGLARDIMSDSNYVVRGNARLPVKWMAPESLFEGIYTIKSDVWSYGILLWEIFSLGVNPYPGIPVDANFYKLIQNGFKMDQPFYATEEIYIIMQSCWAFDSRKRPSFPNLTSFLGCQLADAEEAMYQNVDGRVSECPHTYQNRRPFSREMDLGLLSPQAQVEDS
Text: (§1) Kinase binding data were obtained for various exemplary compounds prepared according to Examples 1-8 using the DiscoverX KINOMEscan® active site-directed competition binding site-directed assay protocol described below. […] As a result, the data report thermodynamic interaction affinities (Kd values), rather than IC50 values that are dependent on ATP concentrations. The assay uses a DNA-tagged version of the protein kinase, and an immobilized ligand bound to a solid support. Compounds that directly or indirectly prevent kinase binding to the immobilized ligand reduce the amount of kinase captured on the solid support, which is detected using an ultra-sensitive qPCR method. Affinity constants reported from the assay have been reported to be independent of the immobilized ligand used that is coupled to the solid support (See supplemental information in Fabian, M. A. et. al., (2005) Nat. Biotechnol. 23, 329-336; Wodicka, L. M. et. al., (2010) Chem. Biol. 17, 1241-1249.)
Kinase-tagged T7 phage strains were prepared in an E. coli host derived from the BL21 strain. E. coli were grown to log-phase and infected with T7 phage and incubated with shaking at 32 °C until lysis. The lysates were centrifuged and filtered to remove cell debris. The remaining kinases were produced in HEK-293 cells and subsequently tagged with DNA for qPCR detection. Streptavidin-coated magnetic beads were treated with biotinylated small molecule ligands for 30 minutes at room temperature to generate affinity resins for kinase assays. The liganded beads were blocked with excess biotin and washed with blocking buffer (SeaBlock (Pierce), 1% BSA, 0.05% Tween 20, 1 mM DTT) to remove unbound ligand and to reduce non-specific binding. […] Test compounds were prepared as 111x stocks in 100% DMSO. Kds were determined using an 11-point 3-fold compound dilution series with three DMSO control points. All compounds for Kd measurements are distributed by acoustic transfer (non-contact dispensing) in 100% DMSO. The compounds were then diluted directly into the assays such that the final concentration of DMSO was 0.9%. All reactions were performed in polypropylene 384-well plates. Each was a final volume of 0.02 mL. The assay plates were incubated at room temperature with shaking for 1 hour and the affinity beads were washed with wash buffer (1×PBS, 0.05% Tween 20). The beads were then re-suspended in elution buffer (1×PBS, 0.05% Tween 20, 0.5 μM nonbiotinylated affinity ligand) and incubated at room temperature with shaking for 30 minutes. The kinase concentration in the eluates was measured by qPCR. Binding constants (Kds) were calculated with a standard dose-response curve using the Hill equation. The Hill Slope was set to −1. Curves were fitted using a non-linear least square fit with the Levenberg-Marquardt algorithm.
as §1, with “9-12” for “1-8”
Kinase-tagged T7 phage strains were prepared in an E. coli host derived from the BL21 strain. […]

| Kd | Structure (SMILES) |
| --- | --- |
| < 0.17 nM | COc1cn2ncc(-c3nc(N[C@H]4CNCC[C@@H]4F)c(C#N)cc3F)c2nc1C1CC1 [Compound 7, 6-(5-cyclopropyl-6-methoxypyrazolo[1,5-a]pyrimidin-3-yl)-5-fluoro-2-(((3S,4S)-4-fluoropiperidin-3-yl)amino)nicotinonitrile] |
| 0.28 nM | COc1cn2ncc(-c3nc(N[C@H]4CNCC[C@@H]4F)c(C#N)cc3F)c2nc1C(C)(C)O [Compound 10, 5-fluoro-2-(((3S,4S)-4-fluoropiperidin-3-yl)amino)-6-(5-(2-hydroxypropan-2-yl)-6-methoxypyrazolo[1,5-a]pyrimidin-3-yl)nicotinonitrile] |
| 0.61 nM | COc1cn2ncc(-c3nc(N[C@H]4CNCC[C@@H]4F)c(F)cc3F)c2nc1C(C)(C)O [Compound 13, 2-(3-(3,5-difluoro-6-(((3S,4S)-4-fluoropiperidin-3-yl)amino)pyridin-2-yl)-6-methoxypyrazolo[1,5-a]pyrimidin-5-yl)propan-2-ol] |

Same assay, conditions: Table 18; no ATP

| Kd | Structure (SMILES) |
| --- | --- |
| 0.47 nM | COc1cn2ncc(-c3nc(N[C@H]4CNCC[C@@H]4F)ncc3F)c2nc1C(C)(C)O [Compound 6a, 2-(3-(5-fluoro-2-(((3S,4S)-4-fluoropiperidin-3-yl)amino)pyrimidin-4-yl)-6-methoxypyrazolo[1,5-a]pyrimidin-5-yl)propan-2-ol] |
| < 0.17 nM | COc1cn2ncc(-c3cncc(N[C@H]4CNCC[C@@H]4F)n3)c2nc1C1CC1 [Compound 12a, 6-(5-cyclopropyl-6-methoxypyrazolo[1,5-a]pyrimidin-3-yl)-N-((3S,4S)-4-fluoropiperidin-3-yl)pyrazin-2-amine] |
| < 0.17 nM | COc1cn2ncc(-c3nc(N[C@@H]4CCCNC4)ncc3F)c2nc1C1CC1 [Compound 14a, (R)-4-(5-cyclopropyl-6-methoxypyrazolo[1,5-a]pyrimidin-3-yl)-5-fluoro-N-(piperidin-3-yl)pyrimidin-2-amine] |

Further lines, the compound ahead of its results:

| Structure (SMILES) | Kd |
| --- | --- |
| COc1cn2ncc(-c3ccnc(N[C@H]4CNCC[C@@H]4F)n3)c2nc1C1CC1 [Compound 7a, 4-(5-cyclopropyl-6-methoxypyrazolo[1,5-a]pyrimidin-3-yl)-N-((3S,4S)-4-fluoropiperidin-3-yl)pyrimidin-2-amine] | < 0.17 nM |
| COc1cn2ncc(-c3nc(N[C@H]4CNCC[C@@H]4F)ncc3F)c2nc1C1CC1 [Compound 15a, 4-(5-cyclopropyl-6-methoxypyrazolo[1,5-a]pyrimidin-3-yl)-5-fluoro-N-((3S,4S)-4-fluoropiperidin-3-yl)pyrimidin-2-amine] | < 0.17 nM |
